# From patent US20240092835A1, “NOVEL PEPTIDES CAPABLE OF ALTERING NK CELL ACTIVITY” (Massachusetts Institute of Technology, priority 2022, published 2024)
# Where no end group is shown, it is not given here.
# Key:
# NKG2A+/NKG2C− NK cells = experiment: NK cell activation markers in NKG2A+/NKG2C- NK cells incubated with peptide and K562 expressing HLA-E (inhibition); format: cell-based, human; details: NKG2A+/NKG2C- NK cells, K562/HLA-E
# Summary of the method: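 HLA-E-expressing K562 cells incubated with peptides from human or human cytomegalovirus proteomes, then with NK cell subsets sorted by NKG2A/NKG2C status. Read-out is percent of cells positive for surface markers; a rise indicates activation, a fall inhibition.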
# CD94/NKG2C = CD94/NKG2C (Homo sapiens, UniProt P26717+Q13241); experiment: Steady-state surface plasmon resonance of peptide-HLA-E complex with CD94/NKG2C; format: binding; details: for Binding of peptide-HLA-E complexes to CD94/NKG2C normalized to a theoretical Rmax: steady-state SPR
# Chain of CD94/NKG2C (P26717 94-231 limits assumed): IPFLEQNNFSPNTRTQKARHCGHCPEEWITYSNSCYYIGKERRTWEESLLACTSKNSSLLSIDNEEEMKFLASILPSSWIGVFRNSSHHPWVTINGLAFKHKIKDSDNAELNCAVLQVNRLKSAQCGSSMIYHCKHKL
# Chain of CD94/NKG2C (Q13241 32-179 limits assumed): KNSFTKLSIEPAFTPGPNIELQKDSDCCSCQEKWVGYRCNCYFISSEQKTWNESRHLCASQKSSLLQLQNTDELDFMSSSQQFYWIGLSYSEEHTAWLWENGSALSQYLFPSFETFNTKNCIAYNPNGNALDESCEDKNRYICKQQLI
# NKG2A−/NKG2C+ NK cells = experiment: NKG2A-/NKG2C+ NK cell activation with peptide and RMA-S cells expressing HLA-E; format: cell-based; details: RMA-S cells expressing HLA-E, NKG2A−/NKG2C+ NK cells
# Protocol: An antigen processing-defective lymphoma cell line (RMA-S), with a low-level expression of HLA-E, were incubated with the novel peptides to determine the inhibitory strength on NKG2A−/NKG2C+NK cells relative to positive control sequences with differential effects ([…] (SEQ ID NO: 19)/VMAPRTLFL (SEQ ID NO: 18)). The effects of the peptides on NK cell inhibition were determined by measuring four markers of NK cell activation (CD107a, IFNG, TNF, CCL3) in NKG2A−/NKG2C+NK cells (FIGS. 2A-2D). Activation was indicated by an increase in percent cells positive for cell surface markers.
sequence,measurement,setting,value
"TGPWRSLWI [human3, TGPWRSLWI]",percentage of CCL3+ NK cells,NKG2A+/NKG2C− NK cells; Trial 1,54.6%
same,percentage of CD107a+ NK cells,NKG2A+/NKG2C− NK cells; Trial 1,34.8%
same,percentage of IFNG+ NK cells,NKG2A+/NKG2C− NK cells; Trial 1,15.5%
same,percentage of TNF+ NK cells,NKG2A+/NKG2C− NK cells; Trial 1,6.18%
same,percentage of CCL3+ NK cells,NKG2A+/NKG2C− NK cells; Trial 2,73.9%
same,percentage of CD107a+ NK cells,NKG2A+/NKG2C− NK cells; Trial 2,47.2%
same,percentage of IFNG+ NK cells,NKG2A+/NKG2C− NK cells; Trial 2,26.8%
same,percentage of TNF+ NK cells,NKG2A+/NKG2C− NK cells; Trial 2,12.4%
same,percentage of CCL3+ NK cells,NKG2A+/NKG2C− NK cells; Trial 3,55.1%
same,percentage of CD107a+ NK cells,NKG2A+/NKG2C− NK cells; Trial 3,44.9%
same,percentage of IFNG+ NK cells,NKG2A+/NKG2C− NK cells; Trial 3,32.1%
same,percentage of TNF+ NK cells,NKG2A+/NKG2C− NK cells; Trial 3,19.7%
same,percentage of CCL3+ NK cells,NKG2A+/NKG2C− NK cells; Trial 4,46.5%
same,percentage of CD107a+ NK cells,NKG2A+/NKG2C− NK cells; Trial 4,37.7%
same,percentage of IFNG+ NK cells,NKG2A+/NKG2C− NK cells; Trial 4,20.1%
same,percentage of TNF+ NK cells,NKG2A+/NKG2C− NK cells; Trial 4,12.5%
same,percentage of CCL3+ NK cells,NKG2A+/NKG2C− NK cells; Trial 5,49.6%
same,percentage of CD107a+ NK cells,NKG2A+/NKG2C− NK cells; Trial 5,35.9%
same,percentage of IFNG+ NK cells,NKG2A+/NKG2C− NK cells; Trial 5,19.2%
same,percentage of TNF+ NK cells,NKG2A+/NKG2C− NK cells; Trial 5,9.62%
same,percentage of CCL3+ NK cells,NKG2A+/NKG2C− NK cells; Trial 6,33.1%
same,percentage of CD107a+ NK cells,NKG2A+/NKG2C− NK cells; Trial 6,25.7%
same,percentage of IFNG+ NK cells,NKG2A+/NKG2C− NK cells; Trial 6,9.52%
same,percentage of TNF+ NK cells,NKG2A+/NKG2C− NK cells; Trial 6,5.43%
same,binding of peptide-HLA-E complex to CD94/NKG2C normalized to a fitted Rmax,CD94/NKG2C; CD94/NKG2C concentration 0 μM,0.006
same,binding of peptide-HLA-E complex to CD94/NKG2C normalized to a fitted Rmax,CD94/NKG2C; CD94/NKG2C concentration 0.1 μM,0.008
same,binding of peptide-HLA-E complex to CD94/NKG2C normalized to a fitted Rmax,CD94/NKG2C; CD94/NKG2C concentration 0.2 μM,0.007
same,binding of peptide-HLA-E complex to CD94/NKG2C normalized to a fitted Rmax,CD94/NKG2C; CD94/NKG2C concentration 0.4 μM,0.011
same,binding of peptide-HLA-E complex to CD94/NKG2C normalized to a fitted Rmax,CD94/NKG2C; CD94/NKG2C concentration 0.8 μM,0.016
same,binding of peptide-HLA-E complex to CD94/NKG2C normalized to a fitted Rmax,CD94/NKG2C; CD94/NKG2C concentration 1.6 μM,0.026
same,binding of peptide-HLA-E complex to CD94/NKG2C normalized to a fitted Rmax,CD94/NKG2C; CD94/NKG2C concentration 3.2 μM,0.044
same,binding of peptide-HLA-E complex to CD94/NKG2C normalized to a fitted Rmax,CD94/NKG2C; CD94/NKG2C concentration 6.4 μM,0.078
same,binding of peptide-HLA-E complex to CD94/NKG2C normalized to a fitted Rmax,CD94/NKG2C; CD94/NKG2C concentration 12.8 μM,0.130
same,binding of peptide-HLA-E complex to CD94/NKG2C normalized to a fitted Rmax,CD94/NKG2C; CD94/NKG2C concentration 25.6 μM,0.219
same,binding of peptide-HLA-E complex to CD94/NKG2C normalized to a fitted Rmax,CD94/NKG2C; CD94/NKG2C concentration 51.2 μM,0.353
same,binding of peptide-HLA-E complex to CD94/NKG2C normalized to a fitted Rmax,CD94/NKG2C; CD94/NKG2C concentration 102.4 μM,0.537
same,Binding of peptide-HLA-E complexes to CD94/NKG2C normalized to a theoretical Rmax,CD94/NKG2C; CD94/NKG2C analyte concentration 0 μM,0.002
same,Binding of peptide-HLA-E complexes to CD94/NKG2C normalized to a theoretical Rmax,CD94/NKG2C; CD94/NKG2C analyte concentration 0.1 μM,0.003
same,Binding of peptide-HLA-E complexes to CD94/NKG2C normalized to a theoretical Rmax,CD94/NKG2C; CD94/NKG2C analyte concentration 0.2 μM,0.003
same,Binding of peptide-HLA-E complexes to CD94/NKG2C normalized to a theoretical Rmax,CD94/NKG2C; CD94/NKG2C analyte concentration 0.4 μM,0.004
same,Binding of peptide-HLA-E complexes to CD94/NKG2C normalized to a theoretical Rmax,CD94/NKG2C; CD94/NKG2C analyte concentration 0.8 μM,0.006
same,Binding of peptide-HLA-E complexes to CD94/NKG2C normalized to a theoretical Rmax,CD94/NKG2C; CD94/NKG2C analyte concentration 1.6 μM,0.010
same,Binding of peptide-HLA-E complexes to CD94/NKG2C normalized to a theoretical Rmax,CD94/NKG2C; CD94/NKG2C analyte concentration 3.2 μM,0.017
same,Binding of peptide-HLA-E complexes to CD94/NKG2C normalized to a theoretical Rmax,CD94/NKG2C; CD94/NKG2C analyte concentration 6.4 μM,0.030
same,Binding of peptide-HLA-E complexes to CD94/NKG2C normalized to a theoretical Rmax,CD94/NKG2C; CD94/NKG2C analyte concentration 12.8 μM,0.050
same,Binding of peptide-HLA-E complexes to CD94/NKG2C normalized to a theoretical Rmax,CD94/NKG2C; CD94/NKG2C analyte concentration 25.6 μM,0.084
same,Binding of peptide-HLA-E complexes to CD94/NKG2C normalized to a theoretical Rmax,CD94/NKG2C; CD94/NKG2C analyte concentration 51.2 μM,0.135
same,Binding of peptide-HLA-E complexes to CD94/NKG2C normalized to a theoretical Rmax,CD94/NKG2C; CD94/NKG2C analyte concentration 102.4 μM,0.205
same,increase in CCL3+ NK cells (in words),NKG2A−/NKG2C+ NK cells,slight increases
same,increase in CD107a+ NK cells (in words),NKG2A−/NKG2C+ NK cells,slight increases
same,increase in IFNG+ NK cells (in words),NKG2A−/NKG2C+ NK cells,no increase
same,increase in TNF+ NK cells (in words),NKG2A−/NKG2C+ NK cells,no increase
